According to patent publication US6908942B2, “6-amino-2,2-dimethyl-3,4,6-trisubstituted benzopyran derivatives and their construction by parallel synthesis on solid-phase” (Korea Research Institute of Chemical Technology, priority 2002, dated 2005):

Test system: lipid peroxidation induced by iron
Assay: Inhibitory effect on iron-induced lipid peroxidation in rat brain homogenate (MDA measurement, N-methyl-2-phenylindole, Bioxytech LPO-586 Kit)
Assay type: biochemical
Details: FeCl2 400 μM, 30 min at 37° C., decrease of MDA vs DMSO control, absorption at 586 nm
Description: The inhibitory effect of the present compounds on lipid peroxidation induced by iron was evaluated as follows:
Rat brain was homogenized in Krebs buffer (15 mM HEPES, 10 mM glucose, 140 mM NaCl, 3.6 mM KCl, 1.5 mM CaCl2, 1.4 mM KH2PO4 and 0.7 mM MgCl, pH 7.4) and centrifuged at 12,000 rpm to obtain the supernatant serving as a raw material of lipid. To the brain homogenates, FeCl^2 was added to give a final concentration of 400 μM and allowed to stand for 30 min at 37° C. for promoting oxidation. Each of the compounds to be tested was added to give a concentration of 12.5 μM and a control group was solely added with dimethylsulfoxide (DMSO).
When iron is added to brain homogenates, oxidation is promoted to increase the amount of malondialdehyde (MDA) as lipid peroxidation product. Therefore, in this Example, the level of lipid peroxidation was evaluated according to MDA measurement method. In general MDA measurement, the test sample is reacted with TBA (2-thiobarbituric acid) and the absorbance at 530 nm was measured. However, since such process includes a boiling step, it is unsuitable for dealing with test samples in large quantity. Therefore, in this Example, N-methyl-2-phenylindole was used as a color developing reagent in place of TBA so as to avoid boiling step. […] The inhibitory effect on lipid peroxidation of test compounds was evaluated by calculating the decreased level of MDA in percentage based on the amount of MDA in the control group. For the test compounds showing more than 80% inhibitory effect, the concentration-lipid peroxidation inhibition curves were plotted with reference to the decrease rate of MDA amount based on the amount of MDA in the control group and their IC50 values was calculated through least linear regression analysis.
In addition, the representative antioxidants commercialized such as Promethazine, Trolox, Probucol and N-propyl gallate were examined in terms of 50% inhibition concentration (IC50) according to the above procedure and the results are shown in Table 4.

Structure (SMILES)	IC50 [nM]
CC1(C)Oc2ccc(NCc3ccc(F)cc3)cc2C(OCc2ccccc2)C1OC(=O)c1ccco1 (stereo not shown) [Compound 5-1810]	4340
Cc1ccc(C(=O)OC2C(OCc3ccccc3)c3cc(NCc4ccc(F)cc4)ccc3OC2(C)C)cc1 (stereo not shown) [Compound 5-1806]	5850
CCNc1ccc2c(c1)C(OCC)C(OC(=O)c1ccc(F)cc1)C(C)(C)O2 (stereo not shown) [Compound 5-1568]	4090
CCCCOC1c2cc(NCc3ccc(F)cc3)ccc2OC(C)(C)C1OC(=O)c1cccs1 (stereo not shown) [Compound 5-1799]	6010
CCNc1ccc2c(c1)C(OC)C(OC(=O)c1ccc(F)cc1)C(C)(C)O2 (stereo not shown) [Compound 5-1558]	3370
COC1c2cc(NCc3ccc(C)cc3)ccc2OC(C)(C)C1OCc1cccc(F)c1 (stereo not shown) [Compound 5-564]	4330
C#CCOC1C(OC)c2cc(NCc3ccc(F)cc3)ccc2OC1(C)C (stereo not shown) [Compound 5-464]	3810
COC1c2cc(NCc3ccc(C)cc3)ccc2OC(C)(C)C1OCc1ccccc1Cl (stereo not shown) [Compound 5-566]	5730
C/C=C/COC1C(OCCc2ccccc2)c2cc(NCc3ccccc3)ccc2OC1(C)C (stereo not shown) [Compound 5-318]	5270
CC1(C)Oc2ccc(NCc3ccccc3)cc2C(OCc2ccccc2)C1OCc1ccc(F)cc1 (stereo not shown) [Compound 5-290]	3020
COC1c2cc(NCc3ccc(F)cc3)ccc2OC(C)(C)C1OC(=O)c1cccs1 (stereo not shown) [Compound 5-1769]	5970
Cc1ccccc1COC1C(OCCc2ccccc2)c2cc(NCc3ccccc3)ccc2OC1(C)C (stereo not shown) [Compound 5-309]	2900
CNc1ccc2c(c1)C(OC)C(OC(=O)c1ccco1)C(C)(C)O2 (stereo not shown) [Compound 5-1490]	3040
CCCCOC1c2cc(NCc3ccc(F)cc3)ccc2OC(C)(C)C1OC(=O)c1ccco1 (stereo not shown) [Compound 5-1800]	3900
COC1c2cc(NCc3ccc(C)cc3)ccc2OC(C)(C)C1OCc1ccc(F)cc1 (stereo not shown) [Compound 5-562]	6470
CNc1ccc2c(c1)C(OCCC1CCCCC1)C(OCc1ccccc1)C(C)(C)O2 (stereo not shown) [Compound 5-97]	5340
Cc1ccc(COC2C(OCCc3ccccc3)c3cc(NCc4ccccc4)ccc3OC2(C)C)cc1 (stereo not shown) [Compound 5-312]	4130
CC1(C)Oc2ccc(NCc3ccccc3)cc2C(OCCc2ccccc2)C1OCc1ccc(F)cc1 (stereo not shown) [Compound 5-306]	4120
CNc1ccc2c(c1)C(OCCC1CCCCC1)C(OCc1ccccc1C)C(C)(C)O2 (stereo not shown) [Compound 5-101]	6030
COc1ccc(C(=O)OC2C(OC)c3cc(NCc4ccc(C)cc4)ccc3OC2(C)C)cc1 (stereo not shown) [Compound 5-1837]	4250
CC1(C)Oc2ccc(NCc3ccccc3)cc2C(OCCc2ccccc2)C1OCc1cc(C(F)F)cc(C(F)(F)F)c1 (stereo not shown) [Compound 5-315]	3430
CCNc1ccc2c(c1)C(OCC)C(OC(=O)c1cccs1)C(C)(C)O2 (stereo not shown) [Compound 5-1569]	3410
CNc1ccc2c(c1)C(OC)C(OC(=O)c1cccs1)C(C)(C)O2 (stereo not shown) [Compound 5-1489]	3330

Continued, values first:

IC50 [nM]	Structure (SMILES)
2850	CCCCOC1c2cc(NC)ccc2OC(C)(C)C1OCc1ccccc1 (stereo not shown) [Compound 5-49]
2610	CCCCOC1c2cc(NC)ccc2OC(C)(C)C1OCc1cccc(Cl)c1 (stereo not shown) [Compound 5-55]
1160	COC1c2cc(NCc3ccc(C)cc3)ccc2OC(C)(C)C1OC(=O)c1ccc(C)cc1 (stereo not shown) [Compound 5-1836]
1800	CCCCOC1c2cc(NC)ccc2OC(C)(C)C1OCc1ccccc1C (stereo not shown) [Compound 5-53]
1190	CC1(C)Oc2ccc(NCc3ccccc3)cc2C(OCCc2ccccc2)C1OCc1ccccc1Cl (stereo not shown) [Compound 5-311]
1030	CC1(C)Oc2ccc(NCc3ccc(F)cc3)cc2C(OCc2ccccc2)C1OC(=O)c1ccco1 (stereo not shown) [Compound 5-1840]
1700	CNc1ccc2c(c1)C(OCc1ccccc1)C(OCc1cccc(Cl)c1)C(C)(C)O2 (stereo not shown) [Compound 5-71]
1140	COC1c2cc(NCc3ccc(C)cc3)ccc2OC(C)(C)C1OC(=O)c1ccccc1 (stereo not shown) [Compound 5-1835]
2720	CCOC1c2cc(NCc3ccc(F)cc3)ccc2OC(C)(C)C1OCc1ccc(Br)cc1F (stereo not shown) [Compound 5-473]
2730	COC1c2cc(NCc3ccc(F)cc3)ccc2OC(C)(C)C1OC(=O)c1ccc(F)cc1 (stereo not shown) [Compound 5-1768]
2040	C=CCOC1C(OC(C)C)c2cc(NCc3ccc(F)cc3)ccc2OC1(C)C (stereo not shown) [Compound 5-495]
2230	CCCCOC1c2cc(NC)ccc2OC(C)(C)C1OC(=O)c1ccccc1 (stereo not shown) [Compound 5-1515]
1310	COC1c2cc(NCc3ccc(C)cc3)ccc2OC(C)(C)C1OC(=O)c1ccc(F)cc1 (stereo not shown) [Compound 5-1838]
2390	CNc1ccc2c(c1)C(OC)C(OC(=O)C1CCCCC1)C(C)(C)O2 (stereo not shown) [Compound 5-1483]
1100	CC1(C)Oc2ccc(NCc3ccccc3)cc2C(OCCc2ccccc2)C1OCc1ccccc1Cl (stereo not shown) [Compound 5-310]
2390	CC1(C)Oc2ccc(NCc3ccc(F)cc3)cc2C(OCc2ccccc2)C1OCc1ccc(F)cc1 (stereo not shown) [Compound 5-514]
1130	CNc1ccc2c(c1)C(OCc1ccccc1)C(OCc1ccccc1)C(C)(C)O2 (stereo not shown) [Compound 5-65]
1420	CNc1ccc2c(c1)C(OCc1ccccc1)C(OCc1ccccc1C)C(C)(C)O2 (stereo not shown) [Compound 5-69]
2710	COC1c2cc(NCc3ccc(C)cc3)ccc2OC(C)(C)C1OC(C)=O (stereo not shown) [Compound 5-1831]
1070	COC1c2cc(NCc3ccc(C)cc3)ccc2OC(C)(C)C1OC(=O)c1cccs1 (stereo not shown) [Compound 5-1839]
2630	COc1ccc(C(=O)OC2C(OC)c3cc(NCc4ccc(F)cc4)ccc3OC2(C)C)cc1 (stereo not shown) [Compound 5-1767]
1360	COC1C(OCc2ccccc2)c2cc(NCc3ccccc3)ccc2OC1(C)C (stereo not shown) [Compound 5-300]
2890	CCNc1ccc2c(c1)C(OCC)C(OC(C)=O)C(C)(C)O2 (stereo not shown) [Compound 5-1561]
